The values below come from patent US20190315878A1, “BISPECIFIC ANTIBODIES THAT MODULATE TLR-4 SIGNALING AND USES THEREOF” (ARGOS THERAPEUTICS INC., priority 2016, published 2019).

The test system of test [1] is stimulated PBMC cultures. The test can be described thus: Cytokine secretion from stimulated PBMC cultures (Cytometric Bead Array). In kind it is cell-based, human. The following applies: COX-2 inhibitor in combination with sCD83. Here is the method:
(§1) To evaluate cytokine secretion from stimulated PBMC cultures in response to sCD83 treatment, the supernatant was collected after culture and analyzed for human cytokines using the Cytometric Bead Array kit (BD® Biosciences) according to the manufacturer's instructions. Data were analyzed using the FCAP Array software (BD® Biosciences). PGE2 concentrations were measured using a competitive ELISA kit (Thermofisher).

In test [2] the test system is stimulated PBMC cultures. Put plainly: PGE2 secretion from stimulated PBMC cultures (competitive ELISA). In kind it is cell-based, human. The note with it: COX-2 inhibitor in combination with sCD83; FIG. 9E. The method, then: as §1
(ELISA stands for enzyme-linked immunosorbent assay.)

Test [3] has as its system IRAK-1. The test can be described thus: IRAK assay of CD83 activity in macrophage cultures (Western blot). Format: cell-based, human. Here is the method: The IRAK Assay measures the rapid down-regulation of IRAK-1 protein by sCD83 in macrophage cultures. PBMCs were cultured in the presence of GM-CSF for 5 days. Macrophages were harvested and cultured overnight in media containing GM-CSF, then incubated in the presence or absence of a test antibody in 1 mL cultures for various times. Cell lysates were then used to prepare a Western blot and evaluated for IRAK expression as described in more detail in working Example 3.
One vial (2×10^8 total cells) of 2124557 PBMCs were thawed and cultured in T-150 flask with 1000 U/mL GM-CSF for 5 days. The macrophages were harvested, counted and resuspended at 1×10^6 cells/mL in R-10 media with GM-CSF and then cultured overnight. The cells were incubated with various preparations of sCD83 polypeptides, +/−25 μg/mL in 1 mL cultures for various times and then lysed in ice cold RIPA buffer with protease/phosphatase inhibitor cocktail. Bradford (BCA) protein assay was performed to determine total protein concentration.
4-5 μg of each lysate sample was run on a lane of a Criterion 10-20% Tris-HCL gel at 200V for 50 minutes. The gel was transferred to PVDF membrane at 100V for 75 minutes. […]
A general note: Immunoblotting shows a protein as a band on a membrane.

Test [4] relates to sCD83-m3 binding on monocytes. The test can be described thus: Antibody blocking of sCD83-m3 binding to PBMCs / monocytes (Example 2). Also on record: species or system human. The following applies: post-thaw PBMCs. Here is the method: For antibody blocking experiments, cells were pre-incubated with the indicated purified antibodies to CD14 (clone M5E2, BD® Biosciences; clone 61D3, eBioscience® Corp.; clone My4, Beckman Coulter®, Inc.), to CD44s (clone 515, BD® Biosciences; clone 1M7, eBioscience® Corp.; and clone 156-3c11 and clone 5F12, Invitrogen® Corp.), to CD44v6 (clone VFF-7, eBiosciences® Corp.) to TLR4/MD-2 (clone MTS510, eBioscience® Corp.) or to MD-2 (clone 984, eBioscience® Corp.; clone 288307, R&D Systems®, Inc.) for 15 minutes at room temperature without washing prior to addition of sCD83 protein. Isotype control IgG1 and IgG2a antibodies were purchased from eBioscience® Corp.. Cells were washed with 2 mL BD® Stain Buffer (FBS) and incubated with 5 μl of Goat anti-human CD83 biotin (R&D Systems®, Inc.) for 15 minutes at room temperature. Cells were washed twice with 2 ml BD® Stain Buffer (FBS) and incubated with 20 μl of Streptavidin APC (BD® Biosciences) for 15 minutes at room temperature. Background staining was determined without the addition of sCD83 protein. […]

Another test concerns the target T1, MD-2 binding to sCD83-m3 (Homo sapiens, UniProt Q9Y6Y9).
T1 sequence (Q9Y6Y9 17-160 limits assumed): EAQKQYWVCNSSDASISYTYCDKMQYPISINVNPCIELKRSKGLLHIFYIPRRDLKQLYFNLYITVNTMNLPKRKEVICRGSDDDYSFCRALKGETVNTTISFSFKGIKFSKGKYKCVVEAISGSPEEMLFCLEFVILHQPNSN
The test can be described thus: LPS derivatives pre-incubated with MD-2; loss of MD-2 binding to sCD83 (cell free ELISA). The following applies: for % inhibition of MD-2 binding to sCD83-m3: LPS derivatives pre-incubated with MD-2, cell free ELISA; for blocking of MD-2 binding to sCD83: FIG. 6B. Here is the method: sCD83 was prepared at 1 μg/mL in Coating Buffer (BD® Bioscience OptEIA ELISA Reagent Set B) and incubated overnight at 4° C. Plates were washed with wash buffer (PBS with 0.05% Tween 20, BD® Bioscience OptEIA Reagent Set B) three times using an ELx405 auto plate washer and then 300 μl of blocking buffer (1% BSA in PBS) was added to each well. The plates were then incubated for 2 hours at 37° C. to block and then washed three times with wash buffer. The protein of interest (MD-2, CD14, MD-2+LPS, or LPS) (R&D Systems®, Inc., Sigma) was serially diluted in seven tubes, and then 100 μl of the diluted protein samples were transferred to the appropriate wells on the capture plate. The plates were then incubated for 1 hour at room temperature in the dark. Plates were washed and goat anti-human biotinylated CD83 detection antibody (R&D Systems®, Inc.) was added at 100 μl/well and incubated for 2 hours at room temperature in the dark. The plates were then washed, and streptavidin-HRP was prepared at a 1:1000 dilution and added at 100 μl/well. The plates were incubated for 1 hour at room temperature in the dark and then washed, and development solution was prepared by combining equal parts of Substrate A plus Substrate B (BD® OptEIA ELISA Reagent Set B) and added to the plates (100 μl/well). The plates were allowed to develop for 1-10 minutes and the reaction was stopped by adding 50 μl/well of stop solution (BD® OptEIA reagents set B). The plates were analyzed on a ELx800 universal microplate reader at 450 nm.
In order to map the sCD83 binding site on MD-2, recombinant MD-2 protein was pre-incubated with each of several LPS derivatives prior to being added to plates coated with sCD83 protein. […] If MD-2 bound to LPS or the LPS derivatives blocked sCD83 binding, the interaction of sCD83 with MD-2 may mimic antagonist regulation of TLR signaling.

The subject of test [5] is IRAK-1. Put plainly: Western blotting of GM-CSF-cultured monocytes. In kind it is cell-based, human. The following applies: 60 minutes; 25 μg/ml sCD83 or 100 ng/ml LPS; FIG. 7A. Here is the method: Monocytes were isolated from PBMC using negative selection (Stemcell) and cultured in R-10 medium ((10% fetal bovine serum (FBS; Atlanta Biologicals), Roswell Park Memorial Institute-1640 (supplemented with 10 mM 4-2-hydroxyethyl-1-piperazineethanesulfonic acid pH 7.4, 1 mM sodium pyruvate, 0.1 mM nonessential amino acids, 2 mM sodium glutamate, and […] 2-mercaptoethanol; Invitrogen® Corp.)) with GM-CSF overnight. sCD83 or LPS was then added for the indicated time points. Cells were lysed in ice cold RIPA buffer in the presence of a protease/phosphatase inhibitor cocktail ([…]). Bradford (BCA) protein assay (Thermo Scientific) was performed to determine total protein concentrations. 4-5 μg of each lysate sample was run on each lane of a Criterion 10-20% Tris-HCL gel at 200V for 50 minutes. The gel was transferred to PVDF membrane at 100V for 75 minutes. […]
The inventors studied the expression of IRAK proteins in the presence of sCD83. […] IRAK-1 protein was detected in untreated cultures and LPS-treated cultures, in contrast to cultures treated with sCD83 (FIG. 7A). Furthermore, no change in IRAK-2, IRAK-4, and IRAK-M protein levels was detected when cells were treated with sCD83 for 60 minutes.

For the molecule `CS(=O)(=O)Nc1ccc([N+](=O)[O-])cc1OC1CCCCC1` [NS-398], the IL-6 secretion entry in the test on stimulated PBMC cultures [1] (FIG. 9C) is listed as “marginal effect”. In the test with stimulated PBMC cultures [1] (FIG. 9D), the “sCD83 induced IL-10 secretion” value is “suppressed sCD83 inducted IL-10 secretion”. Further, in the test on stimulated PBMC cultures [2], the PGE2 production result is “blocked PGE2 production”.
Turning to lipopolysaccharide [LPS], the “down-regulation of IRAK-1 protein in macrophage cultures” value with IRAK-1 [3] is “does not have this effect”. The IRAK assay result in the test with IRAK-1 [3] (macrophages, 25 μg/mL) is reported as “negative result”. Besides, in test [4], the “% inhibition (relative to control)” value was determined as 5%. On MD-2 binding to sCD83-m3, the “% inhibition of MD-2 binding to sCD83-m3” value worked out at 25%. For the same molecule, in the test on IRAK-1 [5], the IRAK-1 protein expression result is reported as “detected”.
“monophosphoryl-Lipid A [Lipid A Monophos]”: the “% inhibition of MD-2 binding to sCD83-m3” value on MD-2 binding to sCD83-m3 is on record as 22%.
In the case of KDO-lipid A [KDO-Lipid A variant], the “% inhibition of MD-2 binding to sCD83-m3” value on MD-2 binding to sCD83-m3 worked out at 93%. For the same molecule, the “blocking of MD-2 binding to sCD83” value was “no longer blocked MD-2 binding to sCD83” on MD-2 binding to sCD83-m3 (added first to sCD83 bound plates and washed prior to addition of MD-2 protein); “prevented MD-2 binding to sCD83” at MD-2 binding to sCD83-m3 (pre-incubated with MD-2); “blocks sCD83 binding to MD-2” at MD-2 binding to sCD83-m3 (pre-incubated with MD-2, listed as KDO).
For diphosphoryl-Lipid A [Lipid A Diphos], the “% inhibition of MD-2 binding to sCD83-m3” value at MD-2 binding to sCD83-m3 is on record as 19%.
